According to ChEMBL document CHEMBL2073839, “Heterologous expression and functional characterization of a mouse renal organic anion transporter in mammalian cells” (J Biol Chem, 1999):

What was measured:
Assay type in all cases: functional, cell-based
[1] = target: T1, Solute carrier family 22 member 6 (Mus musculus, UniProt Q8VC69); assay: TP_TRANSPORTER: inhibition of PAH uptake (PAH: 20 uM, Captopril: 1000 uM) in OAT-expressing COS-7 cells; conditions: monkey, cos-7, 1000 µM
T1 sequence (Q8VC69 whole entry): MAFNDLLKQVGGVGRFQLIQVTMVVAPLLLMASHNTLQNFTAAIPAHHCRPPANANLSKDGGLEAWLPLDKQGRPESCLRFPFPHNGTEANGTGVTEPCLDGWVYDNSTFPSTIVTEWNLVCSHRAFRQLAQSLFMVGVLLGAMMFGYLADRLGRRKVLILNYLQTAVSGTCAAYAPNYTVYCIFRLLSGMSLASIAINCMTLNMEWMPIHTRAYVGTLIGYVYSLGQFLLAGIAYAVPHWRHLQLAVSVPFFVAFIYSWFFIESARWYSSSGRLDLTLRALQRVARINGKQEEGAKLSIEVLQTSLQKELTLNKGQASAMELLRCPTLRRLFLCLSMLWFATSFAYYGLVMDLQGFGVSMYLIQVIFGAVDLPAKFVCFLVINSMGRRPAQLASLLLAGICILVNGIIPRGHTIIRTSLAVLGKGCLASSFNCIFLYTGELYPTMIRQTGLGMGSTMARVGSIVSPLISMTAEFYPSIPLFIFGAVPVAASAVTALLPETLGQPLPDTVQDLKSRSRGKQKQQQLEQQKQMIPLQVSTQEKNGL

[2] = target: T1, Solute carrier family 22 member 6; assay: TP_TRANSPORTER: inhibition of PAH uptake (PAH: 20 uM, Folic acid: 1000 uM) in OAT-expressing COS-7 cells; conditions: monkey, cos-7, 1000 µM
[3] = target: T1, Solute carrier family 22 member 6; assay: TP_TRANSPORTER: inhibition of PAH uptake (PAH: 20 uM, Indomethacin: 1000 uM) in OAT-expressing COS-7 cells; conditions: monkey, cos-7, 1000 µM
[4] = target: T1, Solute carrier family 22 member 6; assay: TP_TRANSPORTER: inhibition of PAH uptake (PAH: 20 uM, Pantothenic acid: 1000 uM) in OAT-expressing COS-7 cells; conditions: monkey, cos-7, 1000 µM
[5] = target: T1, Solute carrier family 22 member 6; assay: TP_TRANSPORTER: inhibition of PAH uptake (PAH: 20 uM, Enalapril: 1000 uM) in OAT-expressing COS-7 cells; conditions: monkey, cos-7, 1000 µM
[6] = target: T1, Solute carrier family 22 member 6; assay: TP_TRANSPORTER: inhibition of PAH uptake (PAH: 20 uM, Diclofenac: 1000 uM) in OAT-expressing COS-7 cells; conditions: monkey, cos-7, 1000 µM
[7] = target: T1, Solute carrier family 22 member 6; assay: TP_TRANSPORTER: inhibition of PAH uptake (PAH: 20 uM, Carprofen: 1000 uM) in OAT-expressing COS-7 cells; conditions: monkey, cos-7, 1000 µM
[8] = target: T1, Solute carrier family 22 member 6; assay: TP_TRANSPORTER: inhibition of PAH uptake (PAH: 20 uM, alpha-KG: 1000 uM) in OAT-expressing COS-7 cells; conditions: monkey, cos-7, 1000 µM
[9] = target: T1, Solute carrier family 22 member 6; assay: TP_TRANSPORTER: inhibition of PAH uptake (PAH: 20 uM, Semustine: 300 uM) in OAT-expressing COS-7 cells; conditions: monkey, cos-7, 300 µM
[10] = target: T1, Solute carrier family 22 member 6; assay: TP_TRANSPORTER: inhibition of PAH uptake (PAH: 20 uM, Sulindac: 1000 uM) in OAT-expressing COS-7 cells; conditions: monkey, cos-7, 1000 µM
[11] = target: T1, Solute carrier family 22 member 6; assay: TP_TRANSPORTER: inhibition of PAH uptake (PAH: 20 uM, Riboflavin: 1000 uM) in OAT-expressing COS-7 cells; conditions: monkey, cos-7, 1000 µM

With C[C@H](CS)C(=O)N1CCC[C@H]1C(=O)O [CAPTOPRIL] the Activity [1] was “inhibitor [(at a rough estimate) 50 % of control]”.

With Nc1nc2ncc(CNc3ccc(C(=O)N[C@@H](CCC(=O)O)C(=O)O)cc3)nc2c(=O)[nH]1 [FOLIC ACID] the Activity [2] was “inhibitor [(at a rough estimate) 55 % of control]”.

COc1ccc2c(c1)c(CC(=O)O)c(C)n2C(=O)c1ccc(Cl)cc1 [INDOMETHACIN] was tested, and the Activity [3] was “inhibitor [(at a rough estimate) 5 % of control]”.

For CC(C)(CO)[C@@H](O)C(=O)NCCC(=O)O [PANTOTHENIC ACID], the Activity [4] was “inhibitor [(at a rough estimate) 60 % of control]”.

In the case of CCOC(=O)[C@H](CCc1ccccc1)N[C@@H](C)C(=O)N1CCC[C@H]1C(=O)O [ENALAPRIL], the Activity [5] was “inhibitor [(at a rough estimate) 45 % of control]”.

For O=C(O)Cc1ccccc1Nc1c(Cl)cccc1Cl [DICLOFENAC], the Activity [6] was “inhibitor [(at a rough estimate) 5 % of control]”.

In the case of CC(C(=O)O)c1ccc2c(c1)[nH]c1ccc(Cl)cc12 (stereo unspecified) [CARPROFEN], the Activity [7] was “inhibitor [(at a rough estimate) 5 % of control]”.

O=C(O)CCC(=O)C(=O)O [ALPHA-KETOGLUTARIC ACID] was tested, and the Activity [8] was “inhibitor [(at a rough estimate) 10 % of control]”.

For CC1CCC(NC(=O)N(CCCl)N=O)CC1 (stereo unspecified) [SEMUSTINE], the Activity [9] was “inhibitor [(at a rough estimate) 35 % of control]”.

For CC1=C(CC(=O)O)c2cc(F)ccc2/C1=C\c1ccc([S+](C)[O-])cc1 (stereo unspecified) [SULINDAC], the Activity [10] was “inhibitor [(at a rough estimate) 5 % of control]”.

Cc1cc2nc3c(=O)[nH]c(=O)nc-3n(C[C@H](O)[C@H](O)[C@H](O)CO)c2cc1C [RIBOFLAVIN] was tested, and the Activity [11] was “inhibitor [(at a rough estimate) 40 % of control]”.
